Results published in US20150086509A1, “COMPOSITIONS AND METHODS FOR TREATING CANCER USING INTERFERON AND MAPK PATHWAY INHIBITOR” (The Trustees of Columbia University in the City of New York, priority 2013, published 2015).
“Also recorded” adds a separate entry of the source.

Key:
Format in all cases: cell-based, human
[1] = system: melanoma cell lines (low- and high-pSTAT1); assay: Apoptosis assessed by TUNEL staining 72 h after treatment; settings: PD325901 50 nM
Description: (§1) Control samples were collected untreated at time of treatment.
Apoptosis was assessed by TUNEL staining Cells were plated in 6-well plates at 200K cells/well. […] TUNEL was performed using Invitrogen BrdU TUNEL kit.

[2] = system: pSTAT1 (interferon-STAT1 pathway); assay: Western blots of pSTAT1 levels; settings: low- and high-pSTAT1 cell lines
Description: as §1
(§2) Samples for protein analysis were lysed using RIPA buffer. Protein concentration was assessed using BCA staining Samples were then normalized to a fixed concentration and mixed with a 5× glycerol/SDS/DTT loading buffer. Lysates were run on gradient (4-12%) Bis-Tris gels. After incubation with horseradish peroxidase-conjugated secondary antibodies, proteins were detected using chemiluminescence.

[3] = system: intrinsic apoptotic pathway (cytochrome C release); assay: Cytochrome C release from the mitochondria
Description: Cytochrome C release was assessed on fresh unfrozen pellets using Sucrose/Mannitol buffer (Majewski et al., 2004). Full details in the supplementary material.
Protocol for Cytochrome C release is taken, as is, from Majewski et al 2004. Lysis buffer: 20 mM Hepes-KOH, [pH 7.5], 210 mM sucrose, and 70 mM mannitol; 1.5 mM MgCl2, 10 mM […], protease inhibitor, and 1 mg digitonin/1 mL lysis buffer.
Cells are trypsinized, collected and spun down in 4C. They are then washed with PBS and spun down again. It is critical that cell pellets will be lysed immediately without freezing. Cells are gently suspended, without vortexing, in lysis buffer. Roughly double the cell pellet volume is used. They are incubated in 25C for 3-10 min, depending all cell line. Spun down at 4C for 20 minutes at highest speed. Supernatant contains cytoplasmic fraction.

[4] = system: caspase pathway (caspases 9, 7 and 3); assay: Cleaved caspases by Western blot; settings: MEK inhibition
Description: as §1, §2

[5] = system: Ma1Me3M, a BRAF-V600E cell line; assay: Comparison of BRAF and MEK inhibition, transcriptional response (Illumina HumanHT-12 microarrays)
Description: We assessed expression fold change at 1 hour, 2, 4, and 8 hours following treatment using Illumina HumanHT-12 microarrays.
Illumina's probe pvalues were used to filter out probes. Probes with p-value>0.05 in more than half of the samples were removed. Then microarrays were normalized according to their 75% percentile values. The 2 control array were averaged, and treated samples were compared to the averaged control to assess fold change.

[6] = system: high pSTAT1 cell line; assay: Cytotoxicity of IFN by SubG1 percentage; settings: 48 hours after treatment
Description: The cytotoxicity of IFN was assessed in high pSTAT1 cell line, 48 hours after treatment using SubG1 percentage. […] Cells plated in 6 well plates, 200K cells/well, in 2 mL of growth media. […] 50K cells per well were plated in 6-well plates with 2 mL of media and treated 24 hours later. Cells were counted every 24 hours up to 72 hours. C. […] Cells were plated in 6 well plates, 200K cells/well with 2 mL media.

In the case of O=C(NOC[C@H](O)CO)c1ccc(F)c(F)c1Nc1ccc(I)cc1F [PD325901], the “cytotoxic effect of MEK inhibition alone (TUNEL)” value ([1]; high-pSTAT1 cell lines) is reported as “only mild response”, the “cytotoxic effect of MEK inhibition alone (TUNEL)” value ([1]; high-pSTAT1 cell lines, listed as MEK inhibition) is reported as “mostly resistant” and the “cytotoxic effect of MEK inhibition alone (TUNEL)” value ([1]; low-pSTAT1 cell lines) is reported as “sensitive”. The “pSTAT1 levels after treatment” value [2] was “increase in pSTAT1 levels”, the “time of cytochrome C release after treatment” value ([3]; MEKi) was “approx. 36 hours” and the “cytochrome C release” value ([3]; MEKi alone, all cell lines) was “activates the intrinsic apoptotic pathway by cytochrome C release”. The “cleavage/activation of caspase 7 and 9” value ([4]; high-pSTAT1 cell lines) was “not cleaved” and the “cleavage/activation of caspase 7 and 9” value ([4]; low pSTAT1 cell lines) was “cleaved and activated”.

For CCCS(=O)(=O)Nc1ccc(F)c(C(=O)c2c[nH]c3ncc(Cl)cc23)c1F [PLX4720], the “transcriptional response compared with the MEK inhibitor PD325901” value ([5]; 2 uM PLX4720 vs 50 nM PD325901, BRAF-V600E cell line) was “almost identical transcriptional response” and the “difference in gene expression fold change between MEKi and BRAFi treatments” value ([5]; Ma1Me3M, all time points (1, 2, 4, 8 hours)) was ≤ 0.5 fold (on a log 2 scale).

In the case of IFNα, the “cytotoxic / apoptotic effect of IFN (SubG1 percentage)” value [6] is reported as “weaker cytotoxic effect than IFNβ; also recorded: dose-dependent effects”.
